From patent US8124793B2, “Derivatives of ethylene methanedisulfonate as cancer chemotherapeutic agents” (priority 2007, dated 2012)

Experiments:
Type in all cases: cell-based
UO-31 = test: NCI screen, growth of human tumor cells: Renal Cancer UO-31; settings: UO-31 (Renal Cancer), 10^−4 molar
Experimental: (§1) In the NCI screening process, each compound was tested and described by a minimum of 60 data points. The test data include, but are not limited to the type of cancer, the molar concentration used in the screen, and the percent growth of the cancer. In some cases, NMR and elemental analysis were used for structural assignment.

NCI-H23 = test: NCI screen, growth of human tumor cells: Non-Small Cell Lung NCI-H23; settings: NCI-H23 (Non-Small Cell Lung), 10^−4 molar
Experimental: as §1

ACHN = test: NCI screen, growth of human tumor cells: Renal Cancer ACHN; settings: ACHN (Renal Cancer), 10^−4 molar
Experimental: as §1

HS 578T = test: NCI screen, growth of human tumor cells: Breast Cancer HS 578T; settings: HS 578T (Breast Cancer), 10^−4 molar
Experimental: as §1

MDA-MB-231/ATCC = test: NCI screen, growth of human tumor cells: Breast Cancer MDA-MB-231/ATCC; settings: MDA-MB-231/ATCC (Breast Cancer), 10^−4 molar
Experimental: as §1

SF-539 = test: NCI screen, growth of human tumor cells: CNS Cancer SF-539; settings: SF-539 (CNS Cancer), 10^−4 molar
Experimental: as §1

HOP-92 = test: NCI screen, growth of human tumor cells: Non-Small Cell Lung HOP-92; settings: HOP-92 (Non-Small Cell Lung), 10^−4 molar
Experimental: as §1

SR = test: NCI screen, growth of human tumor cells: Leukemia SR; settings: SR (Leukemia), 10^−4 molar
Experimental: as §1

RPMI-8226 = test: NCI screen, growth of human tumor cells: Leukemia RPMI-8226; settings: RPMI-8226 (Leukemia), 10^−4 molar
Experimental: as §1

SK-MEL-5 = test: NCI screen, growth of human tumor cells: Melanoma SK-MEL-5; settings: SK-MEL-5 (Melanoma), 10^−4 molar
Experimental: as §1

UACC-257 = test: NCI screen, growth of human tumor cells: Melanoma UACC-257; settings: UACC-257, 10^−4 molar
Experimental: as §1

NCI-H460 = test: NCI screen, growth of human tumor cells: Non-Small Cell Lung NCI-H460; settings: NCI-H460 (Non-Small Cell Lung), 10^−4 molar
Experimental: as §1

U-251 = test: NCI screen, growth of human tumor cells: CNS Cancer U-251; settings: U-251 (CNS Cancer), 10^−4 molar
Experimental: as §1

HCT-116 = test: NCI screen, growth of human tumor cells: Colon Cancer HCT-116
Experimental: as §1

BT-549 = test: NCI screen, growth of human tumor cells: Breast Cancer BT-549; settings: BT-549 (Breast Cancer), 10^−4 molar
Experimental: as §1

M14 = test: NCI screen, growth of human tumor cells: Melanoma M14; settings: M14 (Melanoma), 10^−4 molar
Experimental: as §1

SF-268 = test: NCI screen, growth of human tumor cells: CNS Cancer SF-268; settings: SF-268 (CNS Cancer), 10^−4 molar
Experimental: as §1

SK-MEL-28 = test: NCI screen, growth of human tumor cells: Melanoma SK-MEL-28; settings: SK-MEL-28 (Melanoma), 10^−4 molar
Experimental: as §1

MCF7/ADR-RES = test: NCI screen, growth of human tumor cells: Breast Cancer MCF7/ADR-RES; settings: MCF7/ADR-RES (Breast Cancer), 10^−4 molar
Experimental: as §1

CAKI-1 = test: NCI screen, growth of human tumor cells: Renal Cancer CAKI-1; settings: CAKI-1 (Renal Cancer), 10^−4 molar
Experimental: as §1

MDA-MB-435 = test: NCI screen, growth of human tumor cells: Breast Cancer MDA-MB-435; settings: MDA-MB-435, 10^−4 molar
Experimental: as §1

UACC-62 = test: NCI screen, growth of human tumor cells: Melanoma UACC-62; settings: UACC-62, 10^−4 molar
Experimental: as §1

HL-60 (TB) = test: NCI screen, growth of human tumor cells: Leukemia HL-60 (TB); settings: HL-60 (TB) (Leukemia), 10^−4 molar
Experimental: as §1

RXF-393 = test: NCI screen, growth of human tumor cells: Renal Cancer RXF-393; settings: RXF-393 (Renal Cancer), 10^−4 molar
Experimental: as §1

LOXIMVI = test: NCI screen, growth of human tumor cells: Melanoma LOXIMVI; settings: LOXIMVI (Melanoma), 10^−4 molar
Experimental: as §1

K562 = test: NCI screen, growth of human tumor cells: Leukemia K562; settings: K562 (Leukemia), 10^−4 molar
Experimental: as §1

SN12C = test: NCI screen, growth of human tumor cells: Renal Cancer SN12C; settings: SN12C (Renal Cancer), 10^−4 molar
Experimental: as §1

SF-295 = test: NCI screen, growth of human tumor cells: CNS Cancer SF-295; settings: SF-295 (CNS Cancer), 10^−4 molar
Experimental: as §1

SW620 = test: NCI screen, growth of human tumor cells: Colon Cancer SW620; settings: SW620 (Colon Cancer), 10^−4 molar
Experimental: as §1

OVCAR-3 = test: NCI screen, growth of human tumor cells: Ovarian Cancer OVCAR-3; settings: OVCAR-3 (Ovarian Cancer), 10^−4 molar
Experimental: as §1

PC-3 = test: NCI screen, growth of human tumor cells: Prostate Cancer PC-3; settings: PC-3 (Prostate Cancer), 10^−4 molar
Experimental: as §1

OVCAR-8 = test: NCI screen, growth of human tumor cells: Ovarian Cancer OVCAR-8; settings: OVCAR-8 (Ovarian Cancer), 10^−4 molar
Experimental: as §1

OVCAR-4 = test: NCI screen, growth of human tumor cells: Ovarian Cancer OVCAR-4; settings: OVCAR-4 (Ovarian Cancer), 10^−4 molar
Experimental: as §1

human cancer cells = test: NCI screen summary over the cancers tested (negative growth of human cancer cells); settings: 10^−4 M conc.; cancers with negative growth / cancers tested
Experimental: as §1
The derivatives in the tables are grouped using the same category as in the tables 1-6.

MCF 7 = test: NCI screen, growth of human tumor cells: Breast Cancer MCF 7; settings: MCF 7 (Breast Cancer), 10^−4 molar
Experimental: as §1

HOP-62 = test: NCI screen, growth of human tumor cells: Non-Small Cell Lung HOP-62; settings: HOP-62 (Non-Small Cell Lung), 10^−4 molar
Experimental: as §1

HCT-15 = test: NCI screen, growth of human tumor cells: Colon Cancer HCT-15
Experimental: as §1

DU-145 = test: NCI screen, growth of human tumor cells: Prostate Cancer DU-145; settings: DU-145 (Prostate Cancer), 10^−4 molar
Experimental: as §1

EKVX = test: NCI screen, growth of human tumor cells: Non-Small Cell Lung EKVX; settings: EKVX
Experimental: as §1

IGROVI = test: NCI screen, growth of human tumor cells: Ovarian Cancer IGROVI; settings: IGROVI
Experimental: as §1

MALME-3M = test: NCI screen, growth of human tumor cells: Melanoma MALME-3M; settings: MALME-3M (Melanoma), 10^−4 molar
Experimental: as §1

COLO205 = test: NCI screen, growth of human tumor cells: Colon Cancer COLO205; settings: COLO205 (Colon Cancer), 10^−4 molar
Experimental: as §1

**Q.** What does the source list for `O=C1C(Cl)=C(C2S(=O)(=O)OCCOS2(=O)=O)C(=O)c2ccccc21` [NSC 731260, ethylene 3-chloro-1,4-naphtho-2-quinoylmethanedisulfonate]?
**A.** percent of growth of human tumor cells (UO-31): 30%; percent of growth of human tumor cells (NCI-H23): −54%; percent of growth of human tumor cells (ACHN): −12%; percent of growth of human tumor cells (HS 578T): 8%; percent of growth of human tumor cells (MDA-MB-231/ATCC): −15%; percent of growth of human tumor cells (SF-539): 1%; percent of growth of human tumor cells (HOP-92): −3%; percent of growth of human tumor cells (SR): 15%; percent of growth of human tumor cells (RPMI-8226): −36%; percent of growth of human tumor cells (SK-MEL-5): −54%; % Growth (UACC-257): −74%; percent of growth of human tumor cells (NCI-H460): 4%; percent of growth of human tumor cells (U-251): 2%; % Growth (HCT-116; HCT-116, 10^−4 molar): −89%; percent of growth of human tumor cells (BT-549): −32%; percent of growth of human tumor cells (M14): −58%; percent of growth of human tumor cells (SF-268): 10%; percent of growth of human tumor cells (SK-MEL-28): −5%; percent of growth of human tumor cells (MCF7/ADR-RES): 25%; percent of growth of human tumor cells (CAKI-1): 18%; % Growth (MDA-MB-435): −79%; % Growth (UACC-62): −86%; percent of growth of human tumor cells (HL-60 (TB)): 13%; percent of growth of human tumor cells (RXF-393): 28%; percent of growth of human tumor cells (LOXIMVI): −43%; percent of growth of human tumor cells (K562): 20%; percent of growth of human tumor cells (SN12C): −12%; percent of growth of human tumor cells (SF-295): −46%; percent of growth of human tumor cells (SW620): 1%; percent of growth of human tumor cells (OVCAR-3): 28%; percent of growth of human tumor cells (PC-3): 9%; percent of growth of human tumor cells (OVCAR-8): 18%; percent of growth of human tumor cells (OVCAR-4): 11%; Percentage of cancers showing negative growth cancers tested (human cancer cells): 10^−4 M conc. = 16/37 = 43%; percent of growth of human tumor cells (MCF 7): 6%; percent of growth of human tumor cells (HOP-62): −56%; percent of growth of human tumor cells (HCT-15; HCT-15 (Colon Cancer), 10^−4 molar): 17%; percent of growth of human tumor cells (DU-145): 12%

**Q.** Which “percent of growth of human tumor cells” value (NCI-H23) does the source give for `O=C(c1ccccc1S(=O)(=O)O)C1S(=O)(=O)OCCOS1(=O)=O` [NSC 693880] here?
**A.** 12%

**Q.** And the “percent of growth of human tumor cells” value (ACHN)?
**A.** 8%

**Q.** What about the “percent of growth of human tumor cells” value (MDA-MB-231/ATCC) of the same compound?
**A.** 25%

**Q.** What about the “percent of growth of human tumor cells” value (NCI-H460) of the same compound?
**A.** −11%

**Q.** And the “percent of growth of human tumor cells” value (HCT-116; HCT-116 (Colon Cancer), 10^−4 molar)?
**A.** 20%

**Q.** What about the “percent of growth of human tumor cells” value (M14) of the same compound?
**A.** −4%

**Q.** What about the “percent of growth of human tumor cells” value (MCF7/ADR-RES) of the same compound?
**A.** 4%

**Q.** What about the “percent of growth of human tumor cells” value (CAKI-1) of the same compound?
**A.** −8%

**Q.** What about the “% Growth” value (EKVX; 10^−4 molar) of the same compound?
**A.** 25%

**Q.** And the “% Growth” value (EKVX; 10^−5 molar)?
**A.** 6%

**Q.** And the “percent of growth of human tumor cells” value (OVCAR-3)?
**A.** 76%

**Q.** And the “percent of growth of human tumor cells” value (PC-3)?
**A.** 5%

**Q.** And the “% Growth” value (IGROVI; 10^−4 molar)?
**A.** −21%

**Q.** What about the “% Growth” value (IGROVI; 10^−5 molar) of the same compound?
**A.** 37%

**Q.** What about the “% Growth” value (IGROVI; 10^−6 molar) of the same compound?
**A.** 60%

**Q.** What about the “percent of growth of human tumor cells” value (OVCAR-8) of the same compound?
**A.** −33%

**Q.** What about the “Percentage of cancers showing negative growth cancers tested” value (human cancer cells) of the same compound?
**A.** 10^−4 M conc. = 8/17 = 47%

**Q.** And the “percent of growth of human tumor cells” value (MCF 7)?
**A.** −1%

**Q.** And the “% Growth” value (HCT-15; HCT-15, 10^−4 molar)?
**A.** −41%

**Q.** What about the “% Growth” value (HCT-15; HCT-15, 10^−5 molar) of the same compound?
**A.** 40%

**Q.** And the “percent of growth of human tumor cells” value (MALME-3M)?
**A.** −15%

**Q.** And the “percent of growth of human tumor cells” value (COLO205)?
**A.** 5%
